Literature values as cited in US20180295833A1, “METHOD FOR SUPPRESSION OF OR PROTECTION FROM ISCHEMIA/REPERFUSION INJURY OF ORGANS FOR TRANSPLANTATION” (MiZ Company Limited, priority 2017, published 2018).

Settings: normal temperature and normal pressure of 15° C. to 25° C. and 1 atm

## [HH] [molecular hydrogen]
  saturation concentration of molecular hydrogen: 1.6 ppm
